# Test results: ChEMBL document CHEMBL1201862, “PubChem BioAssay data set” (2004)
# The source made the active and inactive calls.
# Key:
# Genome polyprotein = Genome polyprotein (dengue virus type 2, UniProt P29990); assay: flavivirus cap methylation enzyme inhibition – biochemical, confirmation dose response, primary screen (AID 588689); type: functional
# [1] = biological target: T1, RNA-binding protein pos-1 (Caenorhabditis elegans, UniProt G5EF15); assay: disruptors of C. elegans POS-1 RNA interaction – biochemical, fluorescence polarization, dose response (AID 1964);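 also: purified POS-1 fused to maltose binding protein made in E. coli; potency of compounds blocking POS-1 binding to fluorescent RNA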
# T1 sequence (G5EF15 whole entry): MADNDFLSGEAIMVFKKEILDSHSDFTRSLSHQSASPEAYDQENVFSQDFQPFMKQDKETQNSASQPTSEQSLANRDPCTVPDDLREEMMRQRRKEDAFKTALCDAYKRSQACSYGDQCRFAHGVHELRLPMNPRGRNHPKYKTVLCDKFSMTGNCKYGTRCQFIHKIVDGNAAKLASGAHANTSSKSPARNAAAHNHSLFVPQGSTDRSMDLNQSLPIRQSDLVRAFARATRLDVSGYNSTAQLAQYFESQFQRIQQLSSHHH
# [2] = biological target: T2, Zinc finger protein mex-5 (Caenorhabditis elegans, UniProt Q9XUB2); assay: potency of MEX-5 RNA-binding blockers – biochemical, C. elegans, fluorescence polarization, dose response (AID 1960)
# T2 sequence (Q9XUB2 whole entry): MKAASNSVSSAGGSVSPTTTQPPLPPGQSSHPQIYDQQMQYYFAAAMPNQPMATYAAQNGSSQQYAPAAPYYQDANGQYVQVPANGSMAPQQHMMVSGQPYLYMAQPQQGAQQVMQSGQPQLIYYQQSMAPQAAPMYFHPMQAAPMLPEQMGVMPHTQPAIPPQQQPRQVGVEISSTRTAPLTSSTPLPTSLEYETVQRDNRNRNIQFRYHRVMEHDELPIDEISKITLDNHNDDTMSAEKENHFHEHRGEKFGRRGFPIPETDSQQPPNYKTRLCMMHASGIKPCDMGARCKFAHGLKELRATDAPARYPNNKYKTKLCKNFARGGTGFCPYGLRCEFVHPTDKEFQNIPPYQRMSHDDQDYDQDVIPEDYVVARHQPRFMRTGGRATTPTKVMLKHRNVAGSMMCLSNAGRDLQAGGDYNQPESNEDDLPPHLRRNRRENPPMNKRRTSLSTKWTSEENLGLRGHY
# [3] = biological target: T3, Corticotropin-releasing factor receptor 2/Corticotropin-releasing factor-binding protein (Homo sapiens, UniProt P24387+Q13324); assay: Dose Response confirmation of uHTS hits for small molecule antagonists of the CRF-binding protein and CRF-R2 receptor complex.; type: functional; settings: read-out: IC50_Mean
# T3 sequence (Q13324 whole entry): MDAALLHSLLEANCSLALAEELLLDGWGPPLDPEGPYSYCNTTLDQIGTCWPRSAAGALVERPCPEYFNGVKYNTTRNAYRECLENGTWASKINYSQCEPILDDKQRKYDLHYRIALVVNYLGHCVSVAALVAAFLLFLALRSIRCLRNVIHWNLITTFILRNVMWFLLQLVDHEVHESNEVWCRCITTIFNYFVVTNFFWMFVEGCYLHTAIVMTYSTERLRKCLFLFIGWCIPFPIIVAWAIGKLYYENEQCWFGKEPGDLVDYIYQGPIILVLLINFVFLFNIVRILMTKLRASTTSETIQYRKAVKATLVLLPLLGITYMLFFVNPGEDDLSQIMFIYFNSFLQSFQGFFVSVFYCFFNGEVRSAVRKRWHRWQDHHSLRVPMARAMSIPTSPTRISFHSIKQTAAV
# T3 sequence (P24387 whole entry): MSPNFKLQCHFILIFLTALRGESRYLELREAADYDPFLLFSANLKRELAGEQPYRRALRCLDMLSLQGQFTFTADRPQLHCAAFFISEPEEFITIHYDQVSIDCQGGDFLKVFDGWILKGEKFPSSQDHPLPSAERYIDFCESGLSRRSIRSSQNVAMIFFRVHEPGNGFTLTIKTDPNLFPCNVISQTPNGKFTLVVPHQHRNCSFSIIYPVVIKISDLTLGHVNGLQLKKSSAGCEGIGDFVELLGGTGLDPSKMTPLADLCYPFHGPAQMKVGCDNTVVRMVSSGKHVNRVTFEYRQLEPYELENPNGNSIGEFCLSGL
# [4] = blockers of CRF-binding protein–CRF-R2 complex – cell-based, uHTS hits, 384-well, dose response (AID 651639); type: functional, Homo sapiens; settings: read-out: IC50_Mean
# [5] = biological target: T3, Corticotropin-releasing factor receptor 2/Corticotropin-releasing factor-binding protein; assay: activators of CRF receptor 2 with binding protein – uHTS hits, confirmation (AID 602473); type: functional; settings: read-out: EC50_Mean
# [6] = HIV-1 Vif–A3G interaction blockers – biochemical, TR-FRET, GST-Vif 1-94, biotin-A3G peptide, dose response retest, primary screen (AID 1117319); type: functional;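 also: TR-FRET signal of purified GST-Vif binding a biotinylated A3G peptide; inhibitors lower the FRET signal by blocking Vif and A3G binding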
# [7] = Luminescence Cell-Based Dose Confirmation HTS to Identify Activators of 5'UTR Stem-Loop Driven Alpha-Synuclein mRNA Translation in H4 Neuroglioblastoma Cells. [Related pubchem assays: 1829 (Project Summary), 1814 (Primary HTS)]; type: functional
# [8] = biological target: FAD-linked sulfhydryl oxidase ALR (Homo sapiens, UniProt P55789); assay: ALR-catalysed DTT oxidation blockers – biochemical, H2O2 detection, luminescence, cherry-pick, dose response (AID 493248)
# FAD-linked sulfhydryl oxidase ALR, sequence (P55789 whole entry): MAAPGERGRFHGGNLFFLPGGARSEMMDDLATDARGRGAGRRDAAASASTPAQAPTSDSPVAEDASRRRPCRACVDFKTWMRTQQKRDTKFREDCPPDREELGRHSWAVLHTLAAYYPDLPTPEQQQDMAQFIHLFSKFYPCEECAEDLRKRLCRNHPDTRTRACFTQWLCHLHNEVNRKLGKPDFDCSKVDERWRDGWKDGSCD
# [9] = Luminescence Cell-Based Dose Response HTS to Identify Activators of Luciferase Translation or Activity in H4 […] Cells. [Related pubchem assays: 1829 (Project Summary), 1814 (Primary HTS)]; type: functional
# H4 = assay: Luminescence Cell-Based Dose Response HTS to Identify Activators of 5'UTR Stem-Loop Driven Prion Protein mRNA Translation in H4 Neuroglioblastoma Cells. [Related pubchem assays: 1829 (Project Summary), 1814 (Primary HTS)]; type: functional; settings: Homo sapiens
# [10] = biological target: T4, Short transient receptor potential channel 4 (Mus musculus, UniProt Q9QUQ5); assay: calcium entry via TRPC4 opening agents – cell-based, HEK293 TRPC4/mu-opioid, Fluo-4 calcium, dose response (AID 434937); type: functional
# T4 sequence (Q9QUQ5 whole entry): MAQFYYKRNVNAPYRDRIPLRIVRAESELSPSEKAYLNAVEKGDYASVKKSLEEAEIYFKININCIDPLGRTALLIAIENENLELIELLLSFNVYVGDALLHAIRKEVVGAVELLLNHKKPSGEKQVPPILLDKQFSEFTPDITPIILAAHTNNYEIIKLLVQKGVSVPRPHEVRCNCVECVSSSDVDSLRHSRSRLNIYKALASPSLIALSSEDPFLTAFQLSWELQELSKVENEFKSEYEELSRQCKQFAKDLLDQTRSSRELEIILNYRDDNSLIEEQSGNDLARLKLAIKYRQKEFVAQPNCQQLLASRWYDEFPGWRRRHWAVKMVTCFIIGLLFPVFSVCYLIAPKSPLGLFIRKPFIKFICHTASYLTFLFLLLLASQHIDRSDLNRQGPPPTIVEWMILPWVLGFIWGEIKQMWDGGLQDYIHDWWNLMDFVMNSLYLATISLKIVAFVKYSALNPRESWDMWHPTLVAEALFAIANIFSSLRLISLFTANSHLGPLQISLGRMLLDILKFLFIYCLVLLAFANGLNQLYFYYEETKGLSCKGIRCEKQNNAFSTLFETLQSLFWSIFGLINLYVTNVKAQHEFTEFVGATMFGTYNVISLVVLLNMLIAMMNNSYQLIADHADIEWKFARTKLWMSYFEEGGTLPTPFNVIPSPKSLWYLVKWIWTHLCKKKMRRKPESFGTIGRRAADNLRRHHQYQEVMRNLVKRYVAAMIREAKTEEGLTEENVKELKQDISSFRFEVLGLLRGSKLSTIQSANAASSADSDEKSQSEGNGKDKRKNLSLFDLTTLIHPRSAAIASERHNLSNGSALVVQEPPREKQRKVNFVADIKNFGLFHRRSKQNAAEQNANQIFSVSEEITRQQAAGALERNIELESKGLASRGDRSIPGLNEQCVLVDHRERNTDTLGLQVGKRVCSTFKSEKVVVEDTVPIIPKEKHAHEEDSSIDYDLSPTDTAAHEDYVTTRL
# [11] = Luminescence Cell-Based Dose Response to Identify Activators of Luciferase Translation or Activity in H4-C Neuroglioblastoma Cells. [Related pubchem assays: 1829 (Project Summary), 1814 (Primary HTS)]; type: functional
# [12] = Luminescence Cell-Based Dose Confirmation to Identify Activators of 5'UTR Stem-Loop Driven Alpha-Synuclein mRNA Translation in H4 Neuroglioblastoma Cells. [Related pubchem assays: 1829 (Project Summary), 1814 (Primary HTS)]; type: functional
# [13] = Luminescence Cell-Based Dose Response to Identify Activators of 5'UTR Stem-Loop Driven Prion Protein mRNA Translation in H4-C Neuroglioblastoma Cells. [Related pubchem assays: 1829 (Project Summary), 1814 (Primary HTS)]; type: functional
# cells [14] = type: functional, cell-based
# cells [15] = type: functional, cell-based; remark: listed apart in the source
# HEK293 [16] = assay: NOD2 signaling inhibitors in MDP-stimulated cells, cell-based, uHTS, luminescence (AID 2001); type: functional; settings: Homo sapiens
# HEK293 [17] = assay: inhibition of NOD1-driven NF-kB reporter – cell-based, luminescence, uHTS, primary screen (AID 1578); type: functional; settings: Homo sapiens
# HEK293 [18] = assay: cells; type: functional, cell-based; settings: Homo sapiens
# HEK293 [19] = assay: cells; type: functional, cell-based; settings: Homo sapiens; remark: listed apart in the source
# [20] = biological target: Heat shock protein HSP 90-alpha (Homo sapiens, UniProt P07900); type: functional, organism-based
# Nonstructural protein 1 = Nonstructural protein 1 (Influenza A virus, UniProt Q194T2); type: functional, Influenza A virus (A/California/07/2009(H1N1))
# Nonstructural protein 1, sequence (Q194T2 whole entry): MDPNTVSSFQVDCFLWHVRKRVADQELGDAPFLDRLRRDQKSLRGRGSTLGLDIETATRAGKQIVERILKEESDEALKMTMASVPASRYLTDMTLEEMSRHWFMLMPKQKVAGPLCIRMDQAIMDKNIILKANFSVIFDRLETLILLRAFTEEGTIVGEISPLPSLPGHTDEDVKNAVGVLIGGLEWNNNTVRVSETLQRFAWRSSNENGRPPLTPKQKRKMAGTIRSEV
# [21] = A549 cell cytotoxicity, dose response, cytotoxicity control, plate reader, cherry-pick, antagonist series (AID 743412); type: functional, cell-based
# [22] = blockers of bursicon-stimulated LGR2 cAMP reporter – cell-based, HEK293, CRE-luciferase reporter, cherry pick, set 2, dose response (AID 743343); type: functional;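 also: transfected cells were stimulated with diluted bursicon conditioned medium after compound addition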
# [23] = toxicity toward HepG2 liver cells – cell-based, plate reader, cherry-pick, antagonist series, cytotoxicity control, dose response (AID 743416); type: functional
# [24] = blockade of melanocortin 4 receptor signaling – cell-based, plate reader, cherry pick, counter-screen for LGR2 antagonist project, dose response (AID 743444); type: functional;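 also: transfected HEK 293 cells stimulated with alpha-MSH peptide; potency of inhibitors of the alpha-MSH evoked signal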
# Genome polyprotein, sequence (P29990 2492-3391 limits assumed): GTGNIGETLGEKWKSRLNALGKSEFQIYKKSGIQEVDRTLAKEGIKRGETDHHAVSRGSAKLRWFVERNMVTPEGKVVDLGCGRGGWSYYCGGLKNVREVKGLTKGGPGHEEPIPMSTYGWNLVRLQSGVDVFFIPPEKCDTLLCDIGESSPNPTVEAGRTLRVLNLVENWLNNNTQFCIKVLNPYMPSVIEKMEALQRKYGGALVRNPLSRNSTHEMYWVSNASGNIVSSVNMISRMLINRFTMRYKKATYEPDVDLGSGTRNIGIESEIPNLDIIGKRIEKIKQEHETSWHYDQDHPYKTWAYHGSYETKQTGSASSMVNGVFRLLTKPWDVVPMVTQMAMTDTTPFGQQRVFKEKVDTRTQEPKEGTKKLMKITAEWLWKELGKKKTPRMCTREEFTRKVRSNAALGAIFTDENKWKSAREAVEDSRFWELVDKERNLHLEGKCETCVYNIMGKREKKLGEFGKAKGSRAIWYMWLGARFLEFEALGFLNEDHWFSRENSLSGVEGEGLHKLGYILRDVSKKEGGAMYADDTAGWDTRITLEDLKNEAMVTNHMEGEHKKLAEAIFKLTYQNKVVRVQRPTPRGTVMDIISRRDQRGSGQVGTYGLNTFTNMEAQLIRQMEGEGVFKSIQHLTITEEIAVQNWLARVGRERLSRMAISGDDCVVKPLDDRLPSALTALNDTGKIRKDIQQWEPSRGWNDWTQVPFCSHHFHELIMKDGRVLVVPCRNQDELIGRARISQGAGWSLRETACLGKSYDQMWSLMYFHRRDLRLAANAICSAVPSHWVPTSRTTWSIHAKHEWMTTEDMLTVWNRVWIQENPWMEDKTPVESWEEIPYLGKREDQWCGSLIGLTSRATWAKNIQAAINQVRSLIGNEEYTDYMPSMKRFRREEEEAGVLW
smiles,measurement,setting,value
COc1ccc(/C=c2\sc3nc(=O)c(C)nn3c2=O)c(OC)c1,IC50,Genome polyprotein,22.1 µM (active)
same,EC50,[1],> 300 µM (not active)
same,EC50,[2],88 µM (active)
Cc1cs/c(=N\c2ccccc2)n1Cc1ccco1,IC50,[3],38.4 µM (active)
same,IC50,[4],> 20 µM (inactive)
same,EC50,[5],> 53 µM (inactive)
CCCn1nc(Oc2nc(SC)nc(N(C)C)n2)ccc1=O,IC50,[6],> 100 µM (active)
CCCC(=O)N1CCc2cc(-c3nc(N)sc3C)ccc21,IC50,[3],> 47.1 µM (inactive)
same,EC50,[7],43.5 µM (active)
same,AC50,[8],0.149 µM (active)
same,EC50,[9],31.9 µM (active)
same,EC50,[5],> 53 µM (inactive)
same,EC50,H4,44.6 µM (active)
same,EC50,[10],0.376 µM (active)
COc1ccc(NC(=O)CN2CCC(C(N)=O)CC2)cc1,IC50,[6],> 100 µM (active)
C#CCOc1ccc(/C=C2/C(=O)N(c3ccc(S(N)(=O)=O)cc3)N=C2C)cc1OC,IC50,Genome polyprotein,> 100 µM (active)
CC1C/C(=N/N2C(=O)CSC2=S)CC(C)(C)C1 (configuration not stated),IC50,[6],> 100 µM (active)
COC(=O)CSc1nc(-c2cccs2)ccc1C#N,EC50,[11],0.179 µM (active)
same,EC50,[12],0.219 µM (active)
same,EC50,[13],0.307 µM (active)
same,EC50,[9],< 0.1 µM (active)
same,EC50,H4,0.261 µM (active)
Cc1nc2nc(-c3ccco3)nn2c(C)c1Cl,IC50,[6],> 100 µM (active)
same,EC50,cells [14],> 350 µM (not active)
same,EC50,cells [15],> 350 µM (not active)
COc1cc(NC(=O)CSc2ncnc3sc4c(c23)CCC(C)C4)c(C(=O)O)cc1OC (configuration not stated),IC50,Genome polyprotein,86 µM (active)
S=C(NCCc1ccccc1)N1CCC2CC1c1c(Cl)cccc12 (configuration not stated),IC50,[3],28.9 µM (active)
same,IC50,[4],> 20 µM (inactive)
same,EC50,[5],> 53 µM (inactive)
Cc1cccc2cc3c(N)c(C(=O)Nc4ccc(N5CCOCC5)cc4)sc3nc12,IC50,HEK293 [16],7.54 µM (inactive)
same,EC50,HEK293 [17],18.7 µM (active)
same,IC50,HEK293 [18],> 20 µM (inactive)
same,EC50,[1],> 300 µM (not active)
same,EC50,[2],> 300 µM (not active)
same,IC50,HEK293 [19],5.5 µM (active)
COC(=O)c1ccccc1NC(=O)c1cccc(COc2ccccc2Cl)c1,EC50,[11],0.295 µM (active)
same,EC50,[12],0.299 µM (active)
same,EC50,[13],0.809 µM (active)
same,EC50,[9],< 0.1 µM (active)
Cc1ccc(-n2nnnc2SCc2nnc(-c3ccccc3Br)o2)cc1,IC50,[3],11 µM (active)
same,IC50,[4],3.85 µM (active)
same,EC50,[5],> 53 µM (inactive)
Cc1cccc(CSc2nc3c(c(=O)n2C)SCC3)c1,IC50,[3],< 0.368 µM (active)
same,IC50,[4],> 20 µM (inactive)
same,EC50,[5],> 53 µM (inactive)
Oc1c(C(c2ccccc2)N2CCOCC2)ccc2ccccc12 (configuration not stated),AC50,[20],7.26 µM (active)
CC(=NNC(=S)N(Cc1ccccn1)Cc1ccccn1)c1cnccn1,AC50,[20],3.3 µM (active)
same,IC50,Nonstructural protein 1,1.18 µM (active)
Cc1cc(C)n2c(Nc3ccc4c(c3)OCCO4)c(-c3cc4ccccc4o3)nc2n1,AC50,[21],29.8 µM (active)
same,AC50,[22],12.7 µM (active)
same,AC50,[23],> 52 µM (inactive)
same,AC50,[24],22.8 µM (active)
